Here are results for two molecules from article doi:10.1101/2025.11.11.687791v2, “Structural basis for multiple binding modes of antimalarial ligands targeting Plasmodium falciparum NCR1” (biorxiv, 2026).

What all share (type): binding
Test [1] concerns the target T1, PfNCR1 (Plasmodium falciparum, UniProt Q8I266).
T1 construct: gene NCR1; CHS added for structural samples
T1 sequence (Q8I266 1-1470): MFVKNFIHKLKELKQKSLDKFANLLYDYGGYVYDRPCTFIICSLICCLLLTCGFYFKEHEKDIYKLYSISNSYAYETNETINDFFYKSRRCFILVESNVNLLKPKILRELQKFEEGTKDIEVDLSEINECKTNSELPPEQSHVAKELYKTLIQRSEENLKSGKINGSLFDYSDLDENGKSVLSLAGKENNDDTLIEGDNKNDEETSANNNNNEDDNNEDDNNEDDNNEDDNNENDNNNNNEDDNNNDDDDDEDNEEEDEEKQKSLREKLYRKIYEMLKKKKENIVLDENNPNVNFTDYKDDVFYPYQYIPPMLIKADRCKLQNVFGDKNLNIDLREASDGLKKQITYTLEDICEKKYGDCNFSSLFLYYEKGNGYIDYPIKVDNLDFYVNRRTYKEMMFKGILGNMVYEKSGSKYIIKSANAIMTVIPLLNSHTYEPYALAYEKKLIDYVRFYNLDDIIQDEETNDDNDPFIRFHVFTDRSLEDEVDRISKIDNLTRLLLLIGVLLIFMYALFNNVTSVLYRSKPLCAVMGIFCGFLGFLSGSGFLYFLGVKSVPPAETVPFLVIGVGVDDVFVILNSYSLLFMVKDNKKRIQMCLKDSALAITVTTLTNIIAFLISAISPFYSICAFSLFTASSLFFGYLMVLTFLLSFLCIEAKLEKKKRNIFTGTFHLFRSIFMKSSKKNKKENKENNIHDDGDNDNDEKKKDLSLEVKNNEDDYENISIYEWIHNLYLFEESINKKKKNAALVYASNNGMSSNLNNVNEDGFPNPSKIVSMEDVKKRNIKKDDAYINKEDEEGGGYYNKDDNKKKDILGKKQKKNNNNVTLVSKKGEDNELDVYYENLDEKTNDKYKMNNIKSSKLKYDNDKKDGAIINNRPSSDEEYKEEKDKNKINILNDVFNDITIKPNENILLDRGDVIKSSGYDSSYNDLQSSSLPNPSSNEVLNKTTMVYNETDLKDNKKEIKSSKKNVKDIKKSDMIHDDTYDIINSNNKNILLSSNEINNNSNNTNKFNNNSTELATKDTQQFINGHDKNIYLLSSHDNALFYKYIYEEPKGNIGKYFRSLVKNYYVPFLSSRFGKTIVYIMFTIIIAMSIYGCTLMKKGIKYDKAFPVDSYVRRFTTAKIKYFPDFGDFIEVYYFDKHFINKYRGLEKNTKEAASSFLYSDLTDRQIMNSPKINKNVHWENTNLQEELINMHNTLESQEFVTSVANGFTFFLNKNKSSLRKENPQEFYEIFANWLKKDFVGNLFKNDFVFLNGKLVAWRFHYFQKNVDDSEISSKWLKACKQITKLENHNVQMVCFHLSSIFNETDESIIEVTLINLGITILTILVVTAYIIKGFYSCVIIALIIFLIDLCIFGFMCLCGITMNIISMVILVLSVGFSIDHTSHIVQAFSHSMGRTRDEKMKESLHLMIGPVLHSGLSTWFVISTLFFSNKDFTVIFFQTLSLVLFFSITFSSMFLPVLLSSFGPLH
The test can be described thus: cryo-EM structure of the complex. Conditions: ecto site, alongside CHS; GDN.

In test [2] the target is T1, PfNCR1. The test can be described thus: tryptophan fluorescence quenching. Conditions: purified protein in GDN; ecto site.
Test [3] has as its target T1, PfNCR1. The test can be described thus: cryo-EM structure of the complex, […] Å. Conditions: 1 mM compound; ecto site, displaces CHS.

With `COc1ccc(N2CCN(C(CNC(=O)c3c(F)cccc3F)c3ccc4c(c3)OCO4)CC2)cc1` (stereo not drawn) [Compound 4, G856-4236], the “cryo-EM structure of the complex” value at PfNCR1 [1] was “the new compound was bound to the ecto site without displacing the sterol”.

With `CC(C)c1cccc(C(NC(=O)C2Cc3ccccc3CN2C(=O)c2cccc(N3CCOCC3)c2)C2CCCC2)c1` (stereo not drawn) [Compound 2, MMV028038], the “apparent Kd” value at PfNCR1 [2] was “tryptophan quenching-based binding assays revealed the apparent Kd values in the micromolar range”. Further, at PfNCR1 [3], the “cryo-EM structure of the complex, 3.69 Å” value is given as “this ligand completely displaces the CHS molecule in the ECD sterol site”.
